# According to patent US20050181516A1, “Bioequivalence determination using expression profiling” (priority 2002, published 2005):
# “Also recorded” adds a separate entry of the source.
# System: gene expression (mRNA) in peripheral blood (lymphocytes)
# Assay: Gene expression profiling (Affymetrix DNA microarrays) of blood samples of psoriatic patients before and after oral ASM981
# Format: in vivo, human
# Conditions: for Mean fold variation: day 13/14 vs baseline
# Description: The dose used was 60 mg/day, given as 30 mg twice a day (b.i.d.). To make this dose the […] tablets were cut in half using a special cutter (Tablettenteiler NR.96) so as to obtain 30 mg of ASM981 or a matched amount of placebo.
# ASM981 was evaluated as treatment for psoriasis using an oral dose of 60 mg (30 mg b.i.d) during a 4 weeks clinical study. The oral formulation used was a highly standardized oral dosage form that could be produced in large amounts and with a highly uniform composition, this was oral formulation A.
# The cohort included 10 patients; 8 received oral formulation A and 2 received a placebo. Blood samples were collected before the first administration to establish the gene expression baseline and on days 13 or 14 after treatment with ASM981 or placebo and submitted to gene expression analysis in order to gain insights into the mechanisms of action of the compound.
# The RNA from each of the blood samples was extracted and tested on individual DNA microarrays, thus allowing, for each patient, a comparison of gene expression before and after ASM981 treatment. […] Genes that were consistently modulated, i.e., change greater then a factor of two, were sorted in functional categories. Table 4 lists all the identified genes with their symbol, Unigene cluster number, protein accession number and the GenBank accession number for the sequence used to design the Affymetrix probes.
# The extraction of the RNA from the samples, the preparation of the target, the hybridization and the analysis of the arrays, were performed according to the methods and protocols recommended by Affymetrix. Total RNA was extracted from the blood samples (lymphocytes) collected on days 0 and 14 using TRIZOL™ (Life Technologies), and purified through RNEASY™ columns (Qiagen) as needed. Good quality total RNA ([…]) was used to synthesize double-stranded cDNA using the SUPERSCRIPT CHOICE SYSTEM™ (Life Technologies). The cDNA was then in vitro transcribed (MEGASCRIPT™ T7 Kit, Ambion) to form biotin-labeled cRNA. The quality of the cRNA was checked on a test array according to the recommendation of Affymetrix. Next, […] of labeled cRNA were hybridized to the probe arrays for 16 hours at 45° C. Arrays were then washed according to the EukGE-WS2 protocol (Affymetrix), and stained with […] of streptavidin-phycoerythrin conjugate (Molecular Probes). The signal was antibody amplified with 2 mg/mL acetylated BSA (Life Technologies), 100 mM MES, 1 M [Na+], 0.05% Tween 20, 0.005% Antiofoam (Sigma), 0.1 mg/mL goat IgG and 0.5 mg/mL biotinylated antibody and re-stained with the streptavidin solution. After washing, the arrays were scanned twice with the GENE ARRAY® scanner (Affymetrix).
# The data were analyzed comparing, for each individual patient, the gene expression levels before and after treatment. Only genes that were consistently modulated in at least 5 patients were considered as relevant. These variations were also compared with the gene expression changes observed in the placebo treated patients. During analysis, one chip (patient 44 before treatment) appeared to have very few correctly hybridized genes, and to introduce a bias into the analysis. This pair was excluded to establish average fold change.
smiles,measurement,setting,value
"CC[C@@H]1/C=C(\C)C[C@H](C)C[C@H](OC)[C@H]2O[C@@](O)(C(=O)C(=O)N3CCCC[C@H]3C(=O)O[C@H](/C(C)=C/[C@@H]3CC[C@H](Cl)[C@H](OC)C3)[C@H](C)[C@@H](O)CC1=O)[C@H](C)C[C@@H]2OC [ASM981, 33-Epichloro-33-desoxy-ascomycin]",Mean fold variation,"4-1BB ligand (TNFSF9) mRNA, blood",+2.3 fold
same,Mean fold variation,"ADP/ATP translocase (SLC25A6) mRNA, blood",−3.7 fold
same,Mean fold variation,"ALu RNA binding protein (SRP14) mRNA, blood",−2.9 fold
same,Mean fold variation,"B7 protein (B7) mRNA, blood",+2.9 fold
same,Mean fold variation,"BAP 31 (DXS1357E) mRNA, blood",−9.2 fold
same,Mean fold variation,"BRCA2 (gene symbol ARPC2) mRNA, blood",−6.5 fold
same,Mean fold variation,"Butyrophilin BTF5 (BTN3A1) mRNA, blood",−10.6 fold
same,Mean fold variation,"CAMLG (calcium modulating cyclophilin ligand) mRNA, blood",−5.2 fold
same,Mean fold variation,"CAPL/S100A4 mRNA, blood",−37.8 fold
same,Mean fold variation,"CDC10 homologue (CDC10) mRNA, blood",−6 fold
same,Mean fold variation,"COX6B mRNA, blood",−13.6 fold
same,Mean fold variation,"CSF-1 (CSF1) mRNA, blood",+3.1 fold
same,Mean fold variation,"Calmodulin (CALM2) mRNA, blood",−28.8 fold
same,Mean fold variation,"Clone × 101 (MAP1A) mRNA, blood",+2.2 fold
same,Mean fold variation,"Cyclin D2 (CCND2) mRNA, blood",−16.6 fold
same,Mean fold variation,"Cyclin D3 (CCND3) mRNA, blood",−7.2 fold
same,Mean fold variation,"Cystatin A (CSTA) mRNA, blood",−2.4 fold
same,Mean fold variation,"Cystatin C (CST3) mRNA, blood",−25 fold
same,Mean fold variation,"Cytochrome c oxidase subunit IV (COX4) mRNA, blood",−15.8 fold
same,Mean fold variation,"Cytochrome c oxidase subunit VIc (COX6C) mRNA, blood",−21.1 fold
same,Mean fold variation,"DARC (FY) mRNA, blood",+7 fold
same,Mean fold variation,"EF-1, Elongation factor 1 delta (EEF1D) mRNA, blood",−12.4 fold
same,Mean fold variation,"Epididymal secretory protein mRNA, blood",−19.6 fold
same,Mean fold variation,"FC-epsilon binding protein Galectin 3 (LGALS3) mRNA, blood",−21 fold
same,Mean fold variation,"Farnesyl transferase (FNTA) mRNA, blood",−9 fold
same,Mean fold variation,"Ferritin (FTL) mRNA, blood",−4.4 fold
same,Mean fold variation,"G gamma 11 (GNG11) mRNA, blood",−6.2 fold
same,Mean fold variation,"GPR-9 CCR9 mRNA, blood",+3.4 fold
same,Mean fold variation,"Gamma actin (ACTG1) mRNA, blood",−3.4 fold
same,Mean fold variation,"Glutamine synthase (GLUL) mRNA, blood",−2.6 fold
same,Mean fold variation,"Glutathione peroxidase mRNA, blood",−5.4 fold
same,Mean fold variation,"HLA-DR (HLA-DRA) mRNA, blood",−3.2 fold
same,Mean fold variation,"HLA-E mRNA, first of 2 sequences, blood",−23.4 fold
same,Mean fold variation,"HLA-E mRNA, second of 2 sequences, blood",−4.2 fold
same,Mean fold variation,"HLA-F mRNA, blood",−10.2 fold
same,Mean fold variation,"HLA-I A 26 (HLA-A) mRNA, blood",−4.1 fold
same,Mean fold variation,"HLA-I C (HLA-C) mRNA, blood",−2.9 fold
same,Mean fold variation,"HLH G0S8 (RGS2) mRNA, blood",−10.8 fold
same,Mean fold variation,"HMG-17 (HMG17) mRNA, blood",−15.5 fold
same,Mean fold variation,"Histone H2 (H2AFL) mRNA, blood",−42.6 fold
same,Mean fold variation,"Histone H3.3 (H3F3A) mRNA, blood",−6.6 fold
same,Mean fold variation,"Ii Invariant chain, CD74 mRNA, blood",−46.4 fold
same,Mean fold variation,"KIAA0 151 (IKKE) mRNA, blood",+2.5 fold
same,Mean fold variation,"KIAA0055 (USP8) mRNA, blood",+3.7 fold
same,Mean fold variation,"Kallistatin mRNA, blood",+3.3 fold
same,Mean fold variation,"L-selectin (SELL) mRNA, blood",−46.6 fold
same,Mean fold variation,"LAMP-1 (LAMP1) mRNA, blood",−19.1 fold
same,Mean fold variation,"LAPT5 Lysosomal associated protein (LAPTM5) mRNA, blood",−12.5 fold
same,Mean fold variation,"LFA1a (ITGAL) mRNA, blood",−16.1 fold
same,Mean fold variation,"LFA1b (ITGB2) mRNA, blood",−8.3 fold
same,Mean fold variation,"Lactate dehydrogenase (LDHB) mRNA, blood",−17.1 fold
same,Mean fold variation,"Laminin receptor (LAMR1) mRNA, blood",−7.3 fold
same,Mean fold variation,"Leukotriene A4 hydrolase (LTA4H) mRNA, blood",−8 fold
same,Mean fold variation,"Lone HH109 mRNA, blood",+2 fold
same,Mean fold variation,"MIC-2 CD99 (MIC2) mRNA, blood",−65 fold
same,Mean fold variation,"MTf1 Mitochondrial transcription factor (TFAM) mRNA, blood",+3.2 fold
same,Mean fold variation,"Macrophilin 12 FKBP (FKBP1A) mRNA, blood",−66.2 fold
same,Mean fold variation,"Mitochondrial ubiquinone binding protein (first entry, M26730) mRNA, blood",−5.4 fold
same,Mean fold variation,"Mitochondrial ubiquinone binding protein (second entry of Table 11) mRNA, blood",+6.6 fold
same,Mean fold variation,"Myosin light chain non muscle type mRNA, blood",−15.6 fold
same,Mean fold variation,"Myosin regulatory light chain (MLCB) mRNA, blood",−8.5 fold
same,Mean fold variation,"NRGN Neuragranin mRNA, blood",−3.1 fold
same,Mean fold variation,"Neutrophil cytochrome b light chain (CYBA) mRNA, blood",−34.7 fold
same,Mean fold variation,"Non muscle-type cofilin (CFL1) mRNA, blood",−2.9 fold
same,Mean fold variation,"Nuclear factor Nf-IL6 (CEBPB) mRNA, blood",−6.8 fold
same,Mean fold variation,"Nucleosome assembly protein (NAP1L1) mRNA, blood",−7.7 fold
same,Mean fold variation,"PF-4 (PF4V1) mRNA, blood",−5.2 fold
same,Mean fold variation,"Platelet glycoprotein IIb (ITGA2B) mRNA, blood",−5.2 fold
same,Mean fold variation,"Platelet glycoprotein Ib mRNA, blood",−26.6 fold
same,Mean fold variation,"Prosaposin (PSAP) mRNA, blood",−56.1 fold
same,Mean fold variation,"Prostaglandin endoperoxide synthase 1 (PTGS1) mRNA, blood",−45.9 fold
same,Mean fold variation,"Proteoglycan core protein (PRG1) mRNA, blood",+49 fold
same,Mean fold variation,"Prothymosin alpha (PTMA) mRNA, blood",−71.7 fold
same,Mean fold variation,"Pyrroline5 carboxylate reductase (PYCR1) mRNA, blood",+34 fold
same,Mean fold variation,"RANTES (SCYA5) mRNA, blood",−5.3 fold
same,Mean fold variation,"RSU (RSU1) mRNA, blood",−7.2 fold
same,Mean fold variation,"Ribosomal protein L 12 (RPL12) mRNA, blood",−4.8 fold
same,Mean fold variation,"Ribosomal protein S 7 (RPS7) mRNA, blood",−6.4 fold
same,Mean fold variation,"SABP1 (elk4) (ELK4) mRNA, blood",+6.4 fold
same,Mean fold variation,"Scaffold attachment protein (HNRPU) mRNA, blood",−7.1 fold
same,Mean fold variation,"Selectin P ligand SELPLG mRNA, blood",−17.1 fold
same,Mean fold variation,"Serine Threonine phosphatase (PPP2R1B) mRNA, blood",+5.1 fold
same,Mean fold variation,"Single stranded DNA binding (SSBP) mRNA, blood",−8.5 fold
same,Mean fold variation,"Small nuclear ribonucleoprotein (SNRPN) mRNA, blood",−2 fold
same,Mean fold variation,"TAX REB 67 (ATF4) mRNA, blood",−22.6 fold
same,Mean fold variation,"TF lia transcription factor mRNA, blood",−16.4 fold
same,Mean fold variation,"TRMP2 Apolipoprotein J mRNA, blood",−6.8 fold
same,Mean fold variation,"Taurine transporter (SLC6A6) mRNA, blood",+4.4 fold
same,Mean fold variation,"Thioredoxin binding protein/Vit. D3 Up regulated protein (VDUP1) mRNA, blood",−5.4 fold
same,Mean fold variation,"Thromboxane A2 receptor (TBXA2R) mRNA, blood",−9.3 fold
same,Mean fold variation,"Thymosin beta (TMSB10) mRNA, blood",−7.5 fold
same,Mean fold variation,"Transaldolase mRNA, blood",−3.1 fold
same,Mean fold variation,"Translationally controlled tumor protein (TPT1) mRNA, blood",−3.2 fold
same,Mean fold variation,"Tyrosine phosphatase (huPP1) (PTP4A2) mRNA, blood",−5.7 fold
same,Mean fold variation,"Ubiquitin like protein (UBL4) mRNA, blood",−21.5 fold
same,Mean fold variation,"Vacuolar H + ATPase (ATP6N1A) mRNA, blood",+1.8 fold
same,Mean fold variation,"Vimentin (VIM) mRNA, blood",−7 fold
same,Mean fold variation,"Wilms tumor related protein mRNA, blood",−4 fold
same,Mean fold variation,"Zinc finger protein ZNF141 mRNA, blood",+3.2 fold
same,CD8+ T lymphocytes in the blood,after treatment,slightly more represented
same,proportion of T cell expressing CD3 in the blood,after treatment,does not affect
same,"expression of genes of the Macrolactam target pathway (Macrophilin 12), cellular activation and proliferation (Histone2, Histone 3.3, cyclin D2)",among blood cells,down regulate
same,FKBP12 at the level of RNA synthesis,blood,strongly down regulated
same,Kallistatin expression,blood,up-regulated
same,"expression of inflammatory mediators (Leukotriene A4 hydrolase, Prostaglandin endoperoxide synthase)",blood cells,strongly down regulate
same,"genes involved in asthma physiopathology (RANTES, GALECTIN-3, Thromboxane A2 receptor)",blood cells,markedly down regulated
same,"genes necessary for chemotaxis and cellular migration, including LFA-1, P-Selectin ligand and L-Selectin",blood cells,dramatic down regulation
same,CD3 expression level,"blood, after treatment",unchanged
same,granzyme A and B expression,"blood, after treatment",increase
same,genes involved in any known adverse side effect or toxicity pathway,"expression profile, blood",no consistent pattern of alteration; also recorded: No gene linked to a possible adverse effect or to a toxicity pathway was found to be regulated
same,toxic effect in the expression profile,"expression profile, blood",No obvious toxic effect
same,Mean fold variation,"pM5 (PM5) mRNA, blood",−5.7 fold
